For data set [1], the system named is isolated adult rat cardiac myocytes. The data set can be described thus: Simulated ischemia in isolated cardiac myocytes, cell damage by osmotic fragility test (trypan blue uptake). The data set is classed as cell-based. The protocol: In another study, the δPKC activator peptide, ψδRACK, and the δPKC inhibitor peptide, δV1-1 were administered to isolated rat cardiac myocytes to determine the role of δPKC in protection from ischemia. As described in Example 2, the Antennapedia carrier-peptide conjugate of δV1-1 and/or ψδRACK was introduced into isolated adult rat cardiac myocytes ten minutes prior to prolonged ischemia. Cell damage was assessed using an osmotic fragility test by measuring uptake of trypan blue.
Adult male Wistar rat cardiomyocytes were prepared on a Langendorff apparatus (van der Heide, R. S. et al.) by collagenase treatment (Armstrong, S. et al.). The cells were treated with δV1-1 at concentrations of 10 nM, 100 nM, 500 nM, and 1 μM in the presence or absence of 1 μM ψδRACK. βPKC-selective activator was used as a control.
For […] ischemia, adult myocytes treated in microcentrifuge tubes with δV1-1 and/or ψδRACK peptides conjugated to the carrier were washed twice with degassed glucose-free incubation buffer and pelleted. On top of a minimal amount of buffer, the cell pellets were overlaid with either a micro-balloon (Sig Manufacturing, Montezuma, Iowa) or with degassed buffer saturated with nitrogen, and sealed with an airtight top. Tubes were then incubated at 37 C for either 180 minutes or 90 minutes.
Cell damage was assessed by an osmotic fragility test by measuring the uptake of trypan blue added in a hypotonic (85 mosM) solution. Similar results were also obtained by using a live-dead kit (Molecular Probes) or measuring the release of […] to the medium using a kit (Sigma) as previously described (Chen, et al., 1999; Gray et al., 1997; Mackay et al., 1999).

The next data set has as its target T1, αPKC (Rattus norvegicus, UniProt P05696).
T1 construct: blots probed with anti-δPKC, anti-αPKC and anti-εPKC antibodies; endogenous in cells; host or cells: primary neonatal rat cardiac myocytes
The data set can be described thus: Translocation of αPKC in primary cardiac myocytes (Western blot). The data set is classed as cell-based. Particulars: data not shown. On the procedure:
As described in Example 1, the δV1-1 and ψδRACK peptides were analyzed to determine whether the peptides had activity, and if so, whether the activity was as an agonist or an antagonist of δPKC. As will be shown, δV1-1, δV1-2 and δV1-5 are δPKC antagonists and ψδRACK is a δPKC agonist. In these studies, the δV1-1 and ψδRACK peptides were modified with a carrier peptide by cross-linking via an N-terminal Cys-Cys bond to the Drosophila Antennapedia homeodomain (SEQ ID NO:8; Théodore, L., et al.; Johnson, J. A. et al., 1996b). […] Translocation of δPKC isozyme was assessed by Western blot analysis cystosolic and particulate fractions of treated cells. Subcellular localization of δPKC isozyme was assessed by immunofluorescence by probing the blot with […], and anti-εPKC antibodies. Translocation was expressed as the amount of isozyme in the particulate fraction over the amount of isozyme in non-treated cells. […]
Translocation of δPKC isozyme was assessed by using δPKC isozyme-specific antibodies in Western blot analysis (Santa Cruz Biotechnology). […] Subcellular localization of dPKC isozymes was assessed by chemiluminescence of blots probed with anti-δPKC, anti-αPKC and anti-εPKC antibodies. […] Changes in translocation of δPKC isozyme were also determined by immunofluoresence study of treated and fixed cells (Gray et al., 1997). […]
On the technique in general: In western blotting, separated proteins are transferred to a membrane and probed.

In data set [2] the test system is adult female pigs. The data set can be described thus: In vivo pig cardiac ischemia (30 min LAD balloon occlusion), infarct of area at risk after five days. As to conditions: approximately 20 μg Tat-conjugated peptide during last 10 minutes of 30 minute occlusion; five days later. On the procedure:
In another study in support of the invention, the ability of δV1-1 peptide to protect tissue from damage due to an ischemic or hypoxic event was evaluated by administering the peptide in vivo to adult female pigs. As detailed in Example 5, δV1-1 peptide was administered to the pigs during the last 10 minutes of a 30 minute ischemic insult. Five days later, the hearts were analyzed for tissue damage. Adult female pigs, 35-40 kg in weight, were anesthetized and a catheter was introduced through the carotid artery into the heart. Using conventional intervention cardiology techniques, a wire was placed through a catheter and into the left anterior descending artery. A balloon was run over this wire to a site of occlusion where it was then inflated to block blood flow for 30 minutes. […] From this the percent infarct per area at risk for each slice and for the entire heart was determined.

Data set [3] concerns adult female pigs. The data set can be described thus: Pathology of blood and tissue samples of the treated pigs. Also on record: species or system pig. Particulars: pigs treated in vivo with δV1-1. The source says: (§1) Blood samples and tissue samples of lung, liver, brain, gut, kidney, etc. were collected from the animals and analyzed at a pathology lab. […] Kidney, liver, brain, and lung functions were normal and all blood analyses were also normal.

The next data set concerns mouse model. The data set can be described thus: Safety of two injections in the mouse model. The data set is classed as in vivo. As to conditions: 1 μM final concentration.
From the text: as §1

The values that follow come from US6855693B2, “Peptides for activation and inhibition of δPKC” (The Board of Trustees of the Leland Stanford Junior …, priority 2001, dated 2005).

No end group written: not given here.

With “MRAAEDPM (also: conjugated to Antennapedia or Tat carrier; listed as Rattus norvegicus) [ψδRACK, tested conjugated to Antennapedia or Tat carrier]”, in data set [1] (1 μM ψδRACK, 180 minute ischemia), the “cardiac myocyte damage after ischemic insult” value is reported as “slight increase”. Further, the “effect of co-incubation on the δV1-1 protection from ischemia-induced damage” value in data set [1] (co-incubation with δV1-1, 180 minute ischemia, ψδRACK 1 μM) was “prevented”. In addition, in data set [1] (ischemia shortened to 90 minutes), the “ψδRACK-induced increase in cell damage” value is on record as “became significant”. Further, the “translocation of αPKC” value in the data set with αPKC is “without affecting”.

Regarding “SFNSYELGSL (also: conjugated to Antennapedia or Tat carrier; listed as Rattus norvegicus) [δV1-1, tested conjugated to Antennapedia or Tat carrier]”, in data set [1] (10 nM, 100 nM, 500 nM, 1 μM, given 10 minutes prior to 180 minute ischemia), the “protection from ischemia-induced cell damage” value is “concentration-dependent level of protection”. Also, the “effect of co-treatment on the ψδRACK-induced increase in cell damage” value in data set [1] (90 minute ischemia, co-treatment with ψδRACK) is “reversed”. Moreover, in the data set with adult female pigs [2], the “infarct area within the area at risk (heart slices)” value is “significantly reduced infarct area” and the “percent of infarct of the area at risk compared with untreated animals” value is recorded as “nearly two-fold lower”. Besides, the “blood samples and tissue samples of lung, liver, brain, gut, kidney, pathology” value in the data set with adult female pigs [3] is “All samples were normal and no inflammation or tissue abnormalities were observed”. Further, the “adverse effect of two injections” value in the data set on mouse model (mouse model) is listed as “no adverse effect”. In the data set on mouse model (two injections), the blood analyses entry was “normal”; the “kidney, liver, brain, and lung functions” value is reported as “normal”. The “translocation of αPKC” value with αPKC is given as “did not inhibit”.
